# Entries after “also recorded” stand apart in the source; their conditions may differ.
# Experiments:
# [1] = Chemical stability of Compound A towards hydrolysis; type: physicochemical
# IL-10 = settings: LPS-stimulated hPBMC and human whole blood; background statement; cited from earlier work
# TNF-α = settings: LPS-stimulated hPBMC and human whole blood; background statement; cited from earlier work
# T cells = settings: background statement; cited from earlier work
# IL-1β = settings: LPS-stimulated hPBMC and human whole blood; background statement; cited from earlier work
compound,measurement,setting,value
"O=C1CC[C@H](N2Cc3c(OCc4ccc(CN5CCOCC5)cc4)cccc3C2=O)C(=O)N1 [Compound A, (S)-3-(4-((4-(morpholinomethyl)benzyl)oxy)-1-oxoisoindolin-2-yl)piperidine-2,6-dione]","Susceptibility to hydrolysis, in words",[1],prone to hydrolysis; also recorded: easily degraded by hydrolysis
same,"Effect on IL-10, in words",IL-10,stimulates
same,"Degradation of TNF-α mRNA, in words",TNF-α,enhances
same,"Inhibition of TNF-α, in words",TNF-α,markedly inhibits
same,"Co-stimulation of T cells, in words",T cells,potent co-stimulator
same,"Inhibition of IL-1β, in words",IL-1β,potently inhibits

# — patent publication USRE50917E1, “Formulations of (s)-3-(4-((4-(morpholinomethyl)benzyl)oxy)-1-oxoisoindolin-2-yl)piperidine-2,6-dione” (Celgene Corporation, priority 2013, dated 2026)
